From patent publication US20110178052A1, “9-ALPHA ESTRATRIENE DERIVATIVES AS ER-BETA SELECTIVE LIGANDS FOR THE PREVENTION AND TREATMENT OF INTESTINAL CANCER” (Bayer Schering Pharma Aktiengesellschaft, priority 2008, published 2011)
Entries after “also recorded” stand apart in the source; their conditions may differ.

Experiments:
Assay type in all cases: in vivo, rat
OVX rats = experiment: Uterine wet weights of ovariectomized rats after 3 weeks of treatment; conditions: for uterine wet weights: s.c., 3 weeks, E2 4 μg, GEN 10 mg, ALPHA 10 μg, BETA I 100 μg kg-1 b.wt d-1, vs OVX
Procedure: (§1) Post pubertal animals were ovariectomized (OVX) at the age of three months and weighing 200-220 g. After 14 days of endogenous hormonal decline the animals were treated with the test compounds or vehicle for three weeks. The animals were randomly allocated to treatment and vehicle groups (n=6). E2 (4 μg kg-1 b.wt d-1), GEN (10 mg kg-1 b.wt d-1), ALPHA (10 μg kg-1 b.wt d-1), BETA 1 (100 μg kg-1 b.wt d-1), BETA II (5-15-50 μg kg-1 b.wt d-1) and ICI (3 mg kg-1 b.wt d-1) were dissolved in dimethylsulfoxide (DMSO) (200 μl/KG b. wt/d) and corn oil (800 μl/KG b. wt/d) for s.c. administration.
(§2) Animals were sacrificed by decapitation after light anesthesia with CO2 inhalation. Uteri and intestinal tissues were prepared free of fat and were fixed in 4% formalin (for immunohistochemical analysis) and liquid nitrogen (for molecular biology). The uterine wet weights were determined.

intestinal mucosa = experiment: Doses effect of BETA II on the intestinal mucosa
Procedure: as §1
BETA II was tested at 5, 15 and 50 μg kg-1 b.wt d-1.
Ileal mucosa and rectal colon were dissected from the animals and immediately stored in liquid nitrogen. […] Protein concentrations were determined by the method of Lowry (Dc Protein Assay, Bio-Rad). Equal amounts of sample (40 μg protein) were loaded on a Protean II ready Gel (Bio-Rad). […]
(§3) The protein bands were quantified by densitometry using ImageJ 1.38. To account for in homogenous protein loading of the slots we calculated the ratio of […] (PCNA, M30, active caspase-3).

cytokeratin 18 (M 30) = experiment: Western Blot analysis of cytokeratin 18 cleavage (M30) in colon; conditions: OVX rats, BETA II at 5 μg
Procedure: as §1
Ileal mucosa and rectal colon were dissected from the animals and immediately stored in liquid nitrogen. […] Protein concentrations were determined by the method of Lowry (Dc Protein Assay, Bio-Rad). Equal amounts of sample (40 μg protein) were loaded on a Protean II ready Gel (Bio-Rad).
After electrophoresis and separation, samples were transferred onto nitrocellulose membranes and blocked with 5% BSA in Phosphate (100 mM)-buffered saline solution (pH 7.4) at room temperature for 2 hours. The immobilized proteins were quantitatively detected using specific antibodies for actin and GAPDH (A5060 and G8795, Sigma-Aldrich, Steinheim, Germany), PCNA Clone PC 10 (Dako, Glostrup, Denmark), M30 Cytodeath (ALX-804-590, Alexis, San Diego, Calif., USA) and active caspase-3 (557035, BD Pharmingen, Heidelberg, Germany). […]

PCNA [1] = experiment: Immunohistochemical staining of PCNA in colonic mucosa cells; conditions: OVX rats, immunohistochemistry of rectal colonic cross sections; BETA II at 5 μg/Kg
Procedure: as §1, §2
(§4) Formalin-fixed intestinal samples were embedded in paraffin, sliced with a microtome (7 μm sections). After deparaffinization, antigen retrieval was performed in an incubator for 20 h at 60° C. in 0.01 M citrate buffer pH 6.0.
Subsequently, endogenous peroxidases were blocked for 20 min. with 3% hydrogen peroxide and the slides were covered with a 0,25% Triton X-100 solution for 10 min. […]
Quantitative analysis was performed in complete crypts of normal mucosa. […]

active caspase-3 = experiment: Western Blot analysis of active caspase-3 in ileal mucosa; conditions: for activation of caspase-3: OVX rats, s.c., 3 weeks, E2 4 μg, GEN 10 mg, ALPHA 10 μg, BETA I 100 μg kg-1 b.wt d-1
Procedure: as §1
(§5) Ileal mucosa and rectal colon were dissected from the animals and immediately stored in liquid nitrogen. Pooled frozen tissue (n=6 animals per group) was powdered and homogenized in a buffer (623.5 nM Tris pH 8 EDTA) containing enzyme inhibitors (5 mg/ml aprotonin, 5 mg/ml leupeptin, 1 mg/ml pepstatin-A, 5 mg/ml antipain, 100 mM pefac in 0.5 M EDTA, pH 8). Protein concentrations were determined by the method of Lowry (Dc Protein Assay, Bio-Rad). Equal amounts of sample (40 μg protein) were loaded on a Protean II ready Gel (Bio-Rad).
(§6) After electrophoresis and separation, samples were transferred onto nitrocellulose membranes and blocked with 5% BSA in Phosphate (100 mM)-buffered saline solution (pH 7.4) at room temperature for 2 hours. The immobilized proteins were quantitatively detected using specific antibodies for actin and GAPDH (A5060 and G8795, Sigma-Aldrich, Steinheim, Germany), PCNA Clone PC 10 (Dako, Glostrup, Denmark), M30 Cytodeath (ALX-804-590, Alexis, San Diego, Calif., USA) and active caspase-3 (557035, BD Pharmingen, Heidelberg, Germany).
(§7) Polyclonal Swine Anti-Rabbit Immunglobulins/HRP and Polyclonal Rabbit Anti-Mouse Immunglobulins/HRP (P0217 and P0260, Dako, Glostrup, Denmark) were used as species-specific HRP-conjugated secondary antibodies.
(§8) Blot signals were visualized by the chemoluminescent POD-Substrate (Lumi-Light Plus, Roche Diagnostics, Mannheim, Germany) and a Fluorchem Luminescent Imager (Alpha Innotech, CA, USA).
as §3

PCNA [2] = experiment: Western Blot analysis of PCNA in ileal mucosa; conditions: for PCNA expression of intestinal mucosa cells, Western Blot densitometric evaluation: OVX rats, s.c., 3 weeks, E2 4 μg, GEN 10 mg, ALPHA 10 μg, BETA I 100 μg kg-1 b.wt d-1
Procedure: as §1, §5, §6, §7, §8, §3

PCNA mRNA = PCNA mRNA expression in the intestinal mucosa; conditions: OVX rats, FIG. 3B
Procedure: as §1

PCNA [3] = experiment: Immunohistochemical staining of PCNA in ileal mucosa cells; conditions: OVX rats, s.c., 3 weeks; E2 4 μg, GEN 10 mg, ALPHA 10 μg, BETA I 100 μg kg-1 b.wt d-1
Procedure: as §1, §2, §4
Subsequently, endogenous peroxidases were blocked for 20 min. with 3% hydrogen peroxide and the slides were covered with a 0,25% Triton X-100 solution for 10 min.
The primary antibody, PCNA Clone PC10 (Dako, Glostrup, Denmark) was applied at dilutions of 1:100, respectively.
After 1 h incubation with the primary antibodies, samples were incubated with the secondary antibody: Polyclonal Goat Anti-Mouse Immunglobulins/Biotinylated (Dako, Glostrup, Denmark).
Afterwards the sections were covered with Streptavidin-biotinylated Horseradish Peroxidase Complex (GE Healthcare, Little Chalfont Buckinghamshire, UK) at a dilution of 1:400. The samples were developed with DAB for 10 min. For negative controls, slides were immunostained in the absence of the primary antibody.
Quantitative analysis was performed in complete crypts of normal mucosa. Brown nuclear staining was indicative of a positive PCNA signal.

[4] = BETA I and BETA II at the same concentration (5 μg), pooled ileal tissue, FIG. 6
[5] = OVX rats co-treated with BETA I 100 μg and ICI 3 mg kg-1 b.wt d-1

Row | Structure (SMILES) | cleavage of cytokeratin 18 (M 30) in colonic mucosa cells (cytokeratin 18 (M 30)) | PCNA expression in colonic mucosa cells (PCNA [1]) | uterine wet weights (OVX rats) | PCNA mRNA Expression in the intestinal Mucosa (PCNA mRNA) | PCNA protein expression, immunostaining of ileal cross sections (PCNA [3]) | activation of caspase-3 (active caspase-3; pooled ileal tissue) | PCNA expression of intestinal mucosa cells, Western Blot densitometric evaluation (PCNA [2]; pooled ileal tissue) | other results
1 | C=C[C@]12CC[C@]3(C)[C@@H](F)[C@H](O)C[C@H]3[C@@H]1CCc1cc(O)ccc12 [BETA II, 17β-Fluoro-9α-vinyl-estra-1,3,5(10)-triene-3,16α-diol] | dramatically induced; also recorded: significant stimulation | reduced |  |  |  |  |  | effect on the uterus weight (OVX rats; BETA II at 5 μg/kg): does not show any measurable effect; activity relative to BETA I on effects regulating the intestinal homeostasis (intestinal mucosa; BETA II at 5 μg/kg vs BETA I): about 20 times; doses effect in the intestinal mucosa (intestinal mucosa; OVX rats, BETA II tested at 5, 15 and 50 μg kg-1 b.wt d-1): strongest effect at lowest tested dose of 5 μg/kg; activation of the caspase-3 compared with BETA I (active caspase-3; [4]): at a higher level; down regulation of the expression of the proliferation marker PCNA compared with BETA I (PCNA [2]; [4]): improved effect
2 | C=C[C@@]12CCc3cc(O)ccc3[C@H]1CC[C@@]1(C)[C@H]2CC[C@@H]1O [BETA I, 8β-vinyl-estra-1,3,5(10)-triene-3,17β-diol] |  |  | no significant uterus stimulation | diminished | significantly reduced | dramatically promoted | reduced | 
3 | C[C@]12CC[C@@H]3c4ccc(O)cc4CC[C@H]3[C@@H]1C[C@H]1OC(=O)C[C@]12O [ALPHA, 3,17-dihydroxy-19-nor-17α-pregna-1,3,5(10)-triene-21,16α-lactone] |  |  | strongly increased |  | slightly induced | moderately | elevation | 
4 | C[C@]12CC[C@@H]3c4ccc(O)cc4C[C@@H](CCCCCCCCC[S+]([O-])CCCC(F)(F)C(F)(F)F)[C@H]3[C@@H]1CC[C@@H]2O (some centres unmarked) [ICI] |  |  |  |  |  |  |  | effect of co-administration of ICI on pro-apoptotic effect (active caspase-3) of BETA I (active caspase-3; [5]): antogonization; effect of co-administration of ICI on anti-proliferative effect (PCNA) of BETA I (PCNA [2]; [5]): antogonization
5 | O=c1c(-c2ccc(O)cc2)coc2cc(O)cc(O)c12 [GEN, 4′,5,7-trihydroxyisoflavone] |  | reduced | faint, although significant increase | diminished | significantly reduced | moderately | reduced | 
6 | C[C@]12CC[C@@H]3c4ccc(O)cc4CC[C@H]3[C@@H]1CC[C@@H]2O [E2, 17β-estradiol] | only marginally increased |  | strong stimulation |  | slightly induced | remained on a low level | not affected | 
